# Patent publication US10214519B2, “Phosphatidylinositol 3-kinase inhibitors” (Gilead Sciences, Inc., priority 2016, dated 2019)
# pIC50: −log10 of the molar value.
# Molecular target: PI3Kβ (Homo sapiens (Human), UniProt P42338)
# Test: PI3K isoform TR-FRET enzymatic assay (PI3Kβ)
# Type: biochemical
# Conditions: 2× Km ATP, 30 minutes at 25° C.
# How it was run: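 IC50 came from four-parameter dose-response fits, normalized between DMSO and 1 μM wortmannin controls. The read-out was TR-FRET (615/665 nm) of PIP3 displacing fluorescent PIP3 from Europium GRP-1 after 10 mM EDTA termination. Compounds were incubated with purified heterodimeric PI3Kβ for 30 min at 25° C.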
# Chain of PI3Kβ (P42338 whole entry, canonical isoform): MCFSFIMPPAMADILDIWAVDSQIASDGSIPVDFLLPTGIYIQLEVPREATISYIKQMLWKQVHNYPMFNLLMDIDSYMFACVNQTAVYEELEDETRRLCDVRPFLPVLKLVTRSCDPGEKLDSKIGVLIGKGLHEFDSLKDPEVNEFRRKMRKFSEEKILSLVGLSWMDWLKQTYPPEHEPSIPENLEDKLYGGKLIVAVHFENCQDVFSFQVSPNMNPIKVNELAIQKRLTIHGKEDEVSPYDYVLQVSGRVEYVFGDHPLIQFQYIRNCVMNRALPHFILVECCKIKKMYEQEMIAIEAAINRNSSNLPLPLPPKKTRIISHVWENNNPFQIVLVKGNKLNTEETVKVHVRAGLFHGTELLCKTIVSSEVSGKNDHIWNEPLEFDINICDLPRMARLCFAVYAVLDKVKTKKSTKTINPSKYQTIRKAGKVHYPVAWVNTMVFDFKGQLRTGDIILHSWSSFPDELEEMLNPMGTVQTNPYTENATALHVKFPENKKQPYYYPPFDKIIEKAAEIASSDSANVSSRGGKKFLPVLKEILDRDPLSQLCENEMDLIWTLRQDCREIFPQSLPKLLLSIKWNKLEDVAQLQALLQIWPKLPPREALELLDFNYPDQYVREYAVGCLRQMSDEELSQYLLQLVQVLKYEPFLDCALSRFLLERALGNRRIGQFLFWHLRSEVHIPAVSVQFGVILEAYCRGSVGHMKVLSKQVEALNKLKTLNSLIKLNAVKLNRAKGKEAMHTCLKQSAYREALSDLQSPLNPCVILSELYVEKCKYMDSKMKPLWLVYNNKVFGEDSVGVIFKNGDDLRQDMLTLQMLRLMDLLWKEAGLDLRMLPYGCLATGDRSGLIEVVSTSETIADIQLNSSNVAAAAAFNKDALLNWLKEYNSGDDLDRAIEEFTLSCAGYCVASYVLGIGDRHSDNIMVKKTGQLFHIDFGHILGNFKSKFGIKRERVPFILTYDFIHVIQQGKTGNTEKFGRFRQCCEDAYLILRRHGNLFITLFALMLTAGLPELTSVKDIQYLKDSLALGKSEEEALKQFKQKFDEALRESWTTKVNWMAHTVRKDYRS
# Chain of PI3Kβ (P27986 whole entry partner, canonical isoform): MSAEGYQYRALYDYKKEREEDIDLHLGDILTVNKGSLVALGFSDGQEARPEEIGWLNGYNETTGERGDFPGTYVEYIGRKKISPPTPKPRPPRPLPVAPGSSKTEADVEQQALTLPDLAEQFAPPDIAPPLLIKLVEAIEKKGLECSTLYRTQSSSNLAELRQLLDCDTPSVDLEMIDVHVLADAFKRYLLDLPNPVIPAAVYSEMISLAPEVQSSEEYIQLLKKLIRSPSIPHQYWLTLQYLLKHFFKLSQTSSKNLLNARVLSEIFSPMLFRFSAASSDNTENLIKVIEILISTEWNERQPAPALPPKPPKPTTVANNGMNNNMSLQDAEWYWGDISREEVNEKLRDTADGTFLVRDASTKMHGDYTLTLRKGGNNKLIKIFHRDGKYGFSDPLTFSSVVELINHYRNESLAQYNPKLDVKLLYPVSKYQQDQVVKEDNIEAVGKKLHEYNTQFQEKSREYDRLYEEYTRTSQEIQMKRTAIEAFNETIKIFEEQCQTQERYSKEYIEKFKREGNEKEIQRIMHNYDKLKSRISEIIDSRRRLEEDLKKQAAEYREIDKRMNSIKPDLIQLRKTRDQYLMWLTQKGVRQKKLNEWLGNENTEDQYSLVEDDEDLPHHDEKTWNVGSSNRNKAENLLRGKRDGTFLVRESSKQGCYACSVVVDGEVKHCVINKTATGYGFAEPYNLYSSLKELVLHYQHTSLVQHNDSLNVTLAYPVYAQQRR
row,pIC50,Compound
1,7.57,"Cc1nc2c(-c3ccco3)cc(N3CCOCC3)cc2n1-c1ccnc2c(Cl)cccc12 [Example 274, 4-[3-(8-chloroquinolin-4-yl)-7-(furan-2-yl)-2-methylbenzimidazol-5-yl]morpholine]"
2,8.30,"CCc1nc2c(-c3ncco3)cc(N3CCOCC3)cc2n1-c1ccnc2c(Cl)cccc12 [Example 226, 4-[3-(8-chloroquinolin4-yl)-2-ethyl-7-(1,3-oxazol-2-yl)benzimidazol-5-yl]morpholine]"
3,8.22,"Cc1nc2c(-c3cnc(Cl)[nH]3)cc(N3CCOCC3)cc2n1-c1ccnc2c(Cl)c(F)ccc12 [Example 294, 4-[3-(8-chloro-7-fluoroquinolin-4-yl)-7-(2-chloro-1H-imidazol-5-yl)-2-methylbenzimidazol-5-yl]morpholine]"
4,5.36,"Cc1nc2c(-c3cccc(C(N)=O)c3)cc(N3CCOCC3)cc2n1-c1ccnc2c(Cl)cccc12 [Example 321, 3-[1-(8-chloroquinolin-4-yl)-2-methyl-6-morpholin-4-ylbenzimidazol-4-yl]benzamide]"
5,7.80,CCCc1nc2c(-c3ccn[nH]3)cc(N3CCOCC3)cc2n1-c1ccnc2c(F)ccc(F)c12 [Example 389]
6,7.42,"Cc1nc2c(-c3cnc(Cl)[nH]3)cc(N3CCOCC3)cc2n1-c1ccnc2cc(F)ccc12 [Example 293, 4-[7-(2-chloro-1H-imidazol-5-yl)-3-(7-fluoroquinolin-4-yl)-2-methylbenzimidazol-5-yl]morpholine]"
7,8.15,"Cc1nc2c(-c3nnc(Cl)[nH]3)cc(N3CCOCC3)cc2n1-c1ccnc2c(Cl)ccc(F)c12 [Example 170, 4-(4-(5-chloro-4H-1,2,4-triazol-3-yl)-1-(8-chloro-5-fluoroquinolin-4-yl)-2-methyl-1H-benzo[d]imidazol-6-yl)morpholine]"
8,5.01,"Cc1nc2c(-c3cnn(C)c3)cc(N3CCOCC3)cc2n1-c1ccnc2c(Cl)cccc12 [Example 313, 4-(1-(8-chloroquinolin-4-yl)-2-methyl-4-(1-methyl-1H-pyrazol-4-yl)-1H-benzo[d]imidazol-6-yl)morpholine]"
9,6.31,"Cc1nc2c(-c3cncnc3)cc(N3CCOCC3)cc2n1-c1ccnc2c(Cl)cccc12 [Example 315, 4-(1-(8-chloroquinolin-4-yl)-2-methyl-4-(pyrimidin-5-yl)-1H-benzo[d]imidazol-6-yl)morpholine]"
10,7.89,"Fc1ccc(Cl)c2nccc(-n3c(C4CC4)nc4c(-c5nnc(Cl)[nH]5)cc(N5CCOCC5)cc43)c12 [Example 174, 4-(4-(5-chloro-4H-1,2,4-triazol-3-yl)-1-(8-chloro-5-fluoroquinolin-4-yl)-2-cyclopropyl-1H-benzo[d]imidazol-6-yl)morpholine]"
11,7.92,"Cc1csc(-c2cc(N3CCOCC3)cc3c2nc(C)n3-c2ccnc3c(Cl)cccc23)n1 [Example 205, 4-[3-(8-chloroquinolin-4-yl)-2-methyl-7-(4-methyl-1,3-thiazol-2-yl)benzimidazol-5-yl]morpholine]"
12,6.34,"Cc1nc2c(-c3cscn3)cc(N3CCOCC3)cc2n1-c1ccnc2ccccc12 [Example 265, 4-[2-methyl-3-quinolin-4-yl-7-(1,3-thiazol-4-yl)benzimidazol-5-yl]morpholine]"
13,8.00,"CCc1nc2c(-c3cnc(Cl)[nH]3)cc(N3CCOCC3)cc2n1-c1ccnc2c(Cl)cccc12 [Example 279, 4-[7-(2-chloro-1H-imidazol-5-yl)-3-(8-chloroquinolin-4-yl)-2-ethylbenzimidazol-5-yl]morpholine]"
14,8.10,"Cc1nc2c(-c3ncco3)cc(N3CCOCC3)cc2n1-c1ccnc2c(Cl)cccc12 [Example 204, 4-[3-(8-chloroquinolin-4-yl)-2-methyl-7-(1,3-oxazol-2-yl)benzimidazol-5-yl]morpholine]"
15,8.40,"Cc1csc(-c2cc(N3CCOCC3)cc3c2nc(C)n3-c2ccnc3c(Cl)ccc(F)c23)n1 [Example 238, 4-[3-(8-chloro-5-fluoroquinolin-4-yl)-2-methyl-7-(4-methyl-1,3-thiazol-2-yl)benzimidazol-5-yl]morpholine]"
16,7.70,"Clc1ncc(-c2cc(N3CCOCC3)cc3c2nc(CC2CC2)n3-c2ccnc3c(Cl)cccc23)[nH]1 [Example 301, 4-[7-(2-chloro-1H-imidazol-5-yl)-3-(8-chloroquinolin-4-yl)-2-(cyclopropylmethyl)benzimidazol-5-yl]morpholine]"
17,7.09,"Fc1cccc2c(-n3c(CC4CC4)nc4c(-c5cnc(Cl)[nH]5)cc(N5CCOCC5)cc43)ccnc12 [Example 304, 4-[7-(2-chloro-1H-imidazol-5-yl)-2-(cyclopropylmethyl)-3-(8-fluoroquinolin-4-yl)benzimidazol-5-yl]morpholine]"
18,7.57,"Cc1nc2c(-c3nnc[nH]3)cc(N3CCOCC3)c(F)c2n1-c1ccnc2c(Cl)ccc(F)c12 [Example 150, 4-(1-(8-chloro-5-fluoroquinolin-4-yl)-7-fluoro-2-methyl-4-(4H-1,2,4-triazol-3-yl)-1H-benzo[d]imidazol-6-yl)morpholine]"
19,7.82,"Cc1nc2c(-c3nnc[nH]3)cc(N3CCOCC3)cc2n1-c1ccnc2c(F)c(F)ccc12 [Example 142, 4-[3-(7,8-difluoroquinolin-4-yl)-2-methyl-7-(4H-1,2,4-triazol-3-yl)benzimidazol-5-yl]morpholine]"
20,5.15,"Cc1nc2c(-c3ccnn3C)cc(N3CCOCC3)cc2n1-c1ccnc2c(Cl)cccc12 [Example 269, 4-[3-(8-chloroquinolin-4-yl)-2-methyl-7-(2-methylpyrazol-3-yl)benzimidazol-5-yl]morpholine]"

# The remaining lines, values behind:
row,Compound,pIC50
1,"CCc1nc2ccccc2c(-n2c(C)nc3c(-c4nc(C)n[nH]4)cc(N4CCOCC4)cc32)c1C [Example 76, 4-[3-(2-ethyl-3-methylquinolin-4-yl)-2-methyl-7-(3-methyl-1H-1,2,4-triazol-5-yl)benzimidazol-5-yl]morpholine]",7.54
2,"Cc1cnc2c(Cl)cccc2c1-n1c(C)nc2c(-c3nnc[nH]3)cc(N3CCOCC3)cc21 [Example 68, 4-[3-(8-chloro-3-methylquinolin-4-yl)-2-methyl-7-(4H-1,2,4-triazol-3-yl)benzimidazol-5-yl]morpholine]",8.10
3,"CCc1nc2c(-c3cnc(Cl)[nH]3)cc(N3CCOCC3)cc2n1-c1ccnc2c(F)ccc(F)c12 (atropisomer, axis not shown) [Compound 347, 4-[7-(2-chloro-1H-imidazol-5-yl)-3-(5,8-difluoroquinolin-4-yl)-2-ethylbenzimidazol-5-yl]morpholine]",8.15
4,"Cc1nc2c(-c3nnc[nH]3)cc(N3CCOCC3)cc2n1-c1c(C2CC2)cnc2ccccc12 [Example 66, 4-[3-(3-cyclopropylquinolin-4-yl)-2-methyl-7-(4H-1,2,4-triazol-3-yl)benzimidazol-5-yl]morpholine]",7.80
5,"Cc1nnc(-c2cc(N3CCOCC3)cc3c2nc(CC2CC2)n3-c2ccnc3c(Cl)cccc23)[nH]1 [Example 8, 4-(1-(8-chloroquinolin-4-yl)-2-(cyclopropylmethyl)-4-(5-methyl-4H-1,2,4-triazol-3-yl)-1H-benzo[d]imidazol-6-yl)morpholine]",7.49
6,"CCCc1nc2c(-c3nnc[nH]3)cc(N3CCOCC3)cc2n1-c1ccnc2ccccc12 [Example 41, 4-(2-propyl-1-(quinolin-4-yl)-4-(4H-1,2,4-triazol-3-yl)-1H-benzo[d]imidazol-6-yl)morpholine]",7.68
7,"Cc1cccc2nccc(-n3c(C)nc4c(-c5nnc[nH]5)cc(N5CCOCC5)cc43)c12 [Example 83, 4-[2-methyl-3-(5-methylquinolin-4-yl)-7-(4H-1,2,4-triazol-3-yl)benzimidazol-5-yl]morpholine]",7.72
8,"CC(C)Cc1nc2c(-c3nnc[nH]3)cc(N3CCOCC3)cc2n1-c1ccnc2c(Cl)cccc12 [Example 50, 4-(1-(8-chloroquinolin-4-yl)-2-isobutyl-4-(4H-1,2,4-triazol-3-yl)-1H-benzo[d]imidazol-6-yl)morpholine]",7.80
9,"CCc1nc2c(F)cccc2c(-n2c(C)nc3c(-c4nc(C)n[nH]4)cc(N4CCOCC4)cc32)c1C [Example 80, 4-[3-(2-ethyl-8-fluoro-3-methylquinolin-4-yl)-2-methyl-7-(3-methyl-1H-1,2,4-triazol-5-yl)benzimidazol-5-yl]morpholine]",7.21
10,"CC(C)(C)c1nc2c(-c3nnc[nH]3)cc(N3CCOCC3)cc2n1-c1ccnc2c(Cl)cccc12 [Example 20, 4-(2-(tert-butyl)-1-(8-chloroquinolin-4-yl)-4-(4H-1,2,4-triazol-3-yl)-1H-benzo[d]imidazol-6-yl)morpholine]",6.92
11,"Cc1nc2c(-c3nnc[nH]3)cc(N3CCOCC3)cc2n1-c1c(Cl)cnc2c(Cl)cccc12 [Example 97, 4-[3-(3,8-dichloroquinolin-4-yl)-2-methyl-7-(4H-1,2,4-triazol-3-yl)benzimidazol-5-yl]morpholine]",7.92
12,"Clc1cccc2c(-n3c(C4CC4)nc4c(-c5nnc[nH]5)cc(N5CCOCC5)cc43)ccnc12 [Example 110, 4-[3-(8-chloroquinolin-4-yl)-2-cyclopropyl-7-(4H-1,2,4-triazol-3-yl)benzimidazol-5-yl]morpholine]",7.72
13,"CCCc1nc2c(-c3nnc(C)[nH]3)cc(N3CCOCC3)cc2n1-c1ccnc2c(F)ccc(F)c12 [Example 3, 4-(1-(5,8-difluoroquinolin-4-yl)-4-(5-methyl-4H-1,2,4-triazol-3-yl)-2-propyl-1H-benzo[d]imidazol-6-yl)morpholine]",7.62
14,"Cc1nc2c(-c3nnc[nH]3)cc(N3CCOCC3)cc2n1-c1ccnc2c(F)c(F)ccc12 (atropisomer, axis not shown) [Compound 352, 4-[3-(7,8-difluoroquinolin-4-yl)-2-methyl-7-(4H-1,2,4-triazol-3-yl)benzimidazol-5-yl]morpholine]",8.15
15,"Clc1cccc2c(-n3c(C4CCCO4)nc4c(-c5nnc[nH]5)cc(N5CCOCC5)cc43)ccnc12 (centres unmarked) [Example 102, 4-[3-(8-chloroquinolin-4-yl)-2-(oxolan-2-yl)-7-(4H-1,2,4-triazol-3-yl)benzimidazol-5-yl]morpholine]",7.68
